Assay results: US12240825B2, “Oxexin 1 receptor antagonists” (Heptares Therapeutics Limited, priority 2019, dated 2025)

Tests used:
[1] = test system: rats; conditions: cited from earlier work
[2] = test system: rats; conditions: cited from earlier work; remark: listed apart in the source
[3] = test system: rats; conditions: intraperitoneal administration; cited from earlier work
[4] = test system: rats; conditions: sodium lactate infusion and CO2 challenge models; cited from earlier work
[5] = target: T1, Human OX2 receptor (Homo sapiens (Human), UniProt O43614); assay: IPone accumulation assay, CHO cells expressing OX2; format: cell-based; conditions: antagonism of orexin A (EC80 40 nM)-induced inositol phosphate turnover, read-out: fpKb average OX2 (converted)
Procedure: Generation of CHO stable cell lines expressing the human OX1R and OX2R. Stable cell lines for the human OX1R and OX2R receptors were generated through the transfection of CHO cells using the transfection reagent Genejuice (Novagen number 70967) and cDNA coding for either the human OX1R or OX2R. Cells were cultured in Sigma Nutrient Mixture F-12 Ham media (catalog number N6658) supplemented with 10% heat-inactivated FBS. Forty-eight hours after transfection, cells were harvested and placed under geneticin selection by culturing in Sigma Nutrient Mixture F-12 Ham media supplemented with 10% heat-inactivated FBS and geneticin (ThermoFisher Catalog number: 10131035). Selection of the final stable clone for each receptor was made on the basis of receptor expression, assay signal to noise and robustness though increasing passage. Selected clones for the human OX1R and OX2R were then frozen down into liquid nitrogen using Cell Freezing Medium-DMSO (Sigma-Aldrich catalog number: C6164). IPone accumulation assay. A CHO cell line stably expressing either human OX1 or OX2 receptor was used with the IPone HTRF assay kit (CisBio: Part #62[…]) to measure receptor activation. The assay was optimised to measure the ability (potency; fpKb) of antagonists to reduce agonist (orexin A)-induced inositol phosphate turnover. Briefly, cells were plated onto half area 96-well white walled plates at a density of 12,500 cells/well. Sixteen hours post-plating cell growth media was replaced with antagonist concentration-response curve diluted in stimulation buffer (supplied with the kit). Cells were incubated in a humidified incubator (37° C.) for 30 min before an EC80 challenge concentration ( 20 nM (OX1) and 40 nM (OX2)) of orexin A (Tocris catalogue number 1455). After 30 min stimulation in a humidified incubator (37° C.) the assay was terminated by the addition of detection mixture as per manufacturer's instructions. The concentration of compound which reduced orexin-A stimulated turnover of inositol phosphates by 50% (IC50) was calculated by fitting to a four parameter sigmoidal dose response curve. The IC50 values were converted to fpKB values using the orexin A pEC50 value estimated on each plate as well as the challenge concentration interpolated from the orexin A control curve.

[6] = target: T1, Human OX2 receptor; assay: [3H]-radioligand binding assay, OX2; conditions: competition binding, membranes of SF21 cells, Ki by Cheng-Prusoff
From the text: (§1) Cloning, Baculovirus generation, large-scale infection of SF21 cells and membrane preparation. Human OX1 or OX2 receptor were cloned into Invitrogen's (ThermoFisher Scientific, UK) Bac-to-Bac Baculovirus Expression System. P0 baculovirus was generated by transfecting SF9 cells with bacmid DNA using Cellfectin® II transfection reagent (ThermoFisher Scientific, UK, Catalog number 10362-100). Following P0 generation P1 virus was then generated ready for large scale infection and membrane preparation. SF21 cells were grown in expression medium ESF921 (Expression Systems, USA, catalog number 96-001-01) supplemented with 10% heat-inactivated FBS and 1% Pen/Strep and were infected at a cell density of 2.5×10^6 cells/mL and a multiplicity of infection of 1.0 for both human OX1R and OX2R. Incubation was carried out at over 48 h in a shaking incubator set at 27° C. The cell culture was then centrifuged at 2,500 rcf for 10 min at 4° C. The pellets were resuspended in cold PBS supplemented with Roche's Complete EDTA-free protease inhibitor cocktail tablets (Roche Applied Sciences, catalog number 05056489001), 1 mM PMSF and 1 mM EDTA. The resuspended cell paste was then centrifuged at 3,273 rcf for 12 min at 4° C. The supernatant was discarded and the pellet frozen at −80° C. The cell pellet from a 4 L culture was resuspended in buffer containing 50 mM HEPES pH 7.5, 150 mM NaCl, 8 Roche EDTA-Free protease inhibitor cocktail tablets and 1 mM PMSF. The suspension was left stirring at rt for 1 h and then homogenised for 90 s at 9,500 rpm using a VDI 25 (VWR, USA) homogeniser. The cells were then lysed using a Microfluidiser processor M-110L Pneumatic (Microfluidics, USA) at 60 PSI and membranes collected by ultracentrifugation at 204.7 k×g for 1 h. The supernatant was discarded and the pellet was resuspended and homogenised in 90 s at 9,500 rpm in 50 mL (25 mL for each 2 L culture) of buffer containing 50 mM Hepes pH 7.5, 150 mM NaCl, 3 Roche EDTA-free protease inhibitor cocktail tablets and 1 mM PMSF. The resulting membranes were then stored at −80° C.
(§2) [^3H]-radioligand binding assay. After thawing, membrane homogenates were resuspended in the binding buffer (8.5 mM HEPES, pH 7.4, 1.3 mM CaCl2, 1.2 mM MgSO4, 118 mM NaCl, 4.7 mM KCl, 4 mM NaHCO3, 1.2 mM KH2PO4, 11 mM glucose) to a final assay concentration of 6.4 μg (OX1) or 1.4 μg (OX2) protein per well. Saturation isotherms were determined by the addition of various concentrations (0-30 nM) of [^3H]-4-(2,6-difluoro-4-methoxybenzyl)-2-(5,6-dimethoxypyridin-3-yl)-2H-1,2,4-benzothiadiazin-3(4H)-one 1,1-dioxide (Christopher et al, MedChemComm., 2015, 6, 947-955) in a total reaction volume of 250 μL for 90 min at rt. At the end of the incubation, membranes were filtered onto a 96-well GF/B filter pre-incubated with 0.5% polyethylenimine, with a Tomtec cell harvester and washed 5 times with 0.5 mL distilled water. Non-specific binding (NSB) was measured in the presence of 3.33 μM [4-(5-chloro-1,3-benzoxazol-2-yl)-7-methyl-1,4-diazepan-1-yl][5-methyl-2-(2H-1,2,3-triazol-2-yl)phenyl]methanone (Wertz et al, Angew. Chem. Int. Ed., 2011, 50, 11511-11515). Radioactivity on the filter was counted (1 min) on a Microbeta radiometric plate counter (Perkin Elmer) after addition of 50 μL of scintillation fluid (LabLogic: Part #SG-BXX-14). […] IC50 values were derived from the inhibition curve and the equilibrium dissociation constant (Ki) values were calculated using the Cheng-Prusoff equation.

[7] = target: T2, Human OX1 receptor (Homo sapiens (Human), UniProt O43613); assay: IPone accumulation assay, CHO cells expressing OX1; format: cell-based; conditions: antagonism of orexin A (EC80 ~20 nM)-induced inositol phosphate turnover, read-out: fpKb average OX1 (converted)
Procedure: Generation of CHO stable cell lines expressing the human OX1R and OX2R. Stable cell lines for the human OX1R and OX2R receptors were generated through the transfection of CHO cells using the transfection reagent Genejuice (Novagen number 70967) and cDNA coding for either the human OX1R or OX2R. Cells were cultured in Sigma Nutrient Mixture F-12 Ham media (catalog number N6658) supplemented with 10% heat-inactivated FBS. Forty-eight hours after transfection, cells were harvested and placed under geneticin selection by culturing in Sigma Nutrient Mixture F-12 Ham media supplemented with 10% heat-inactivated FBS and geneticin (ThermoFisher Catalog number: 10131035). Selection of the final stable clone for each receptor was made on the basis of receptor expression, assay signal to noise and robustness though increasing passage. Selected clones for the human OX1R and OX2R were then frozen down into liquid nitrogen using Cell Freezing Medium-DMSO (Sigma-Aldrich catalog number: C6164).
IPone accumulation assay. A CHO cell line stably expressing either human OX1 or OX2 receptor was used with the IPone HTRF assay kit (CisBio: Part #62IPAPEJ) to measure receptor activation. The assay was optimised to measure the ability (potency; fpKb) of antagonists to reduce agonist (orexin A)-induced inositol phosphate turnover. Briefly, cells were plated onto half area 96-well white walled plates at a density of 12,500 cells/well. Sixteen hours post-plating cell growth media was replaced with antagonist concentration-response curve diluted in stimulation buffer (supplied with the kit). Cells were incubated in a humidified incubator (37° C.) for 30 min before an EC80 challenge concentration (˜20 nM (OX1) and 40 nM (OX2)) of orexin A (Tocris catalogue number 1455). After 30 min stimulation in a humidified incubator (37° C.) the assay was terminated by the addition of detection mixture as per manufacturer's instructions. The concentration of compound which reduced orexin-A stimulated turnover of inositol phosphates by 50% (IC50) was calculated by fitting to a four parameter sigmoidal dose response curve. The IC50 values were converted to fpKB values using the orexin A pEC50 value estimated on each plate as well as the challenge concentration interpolated from the orexin A control curve.

[8] = target: T2, Human OX1 receptor; assay: [3H]-radioligand binding assay, OX1; conditions: competition binding, membranes of SF21 cells, Ki by Cheng-Prusoff
From the text: as §1, §2

T1 sequence (O43614 whole entry): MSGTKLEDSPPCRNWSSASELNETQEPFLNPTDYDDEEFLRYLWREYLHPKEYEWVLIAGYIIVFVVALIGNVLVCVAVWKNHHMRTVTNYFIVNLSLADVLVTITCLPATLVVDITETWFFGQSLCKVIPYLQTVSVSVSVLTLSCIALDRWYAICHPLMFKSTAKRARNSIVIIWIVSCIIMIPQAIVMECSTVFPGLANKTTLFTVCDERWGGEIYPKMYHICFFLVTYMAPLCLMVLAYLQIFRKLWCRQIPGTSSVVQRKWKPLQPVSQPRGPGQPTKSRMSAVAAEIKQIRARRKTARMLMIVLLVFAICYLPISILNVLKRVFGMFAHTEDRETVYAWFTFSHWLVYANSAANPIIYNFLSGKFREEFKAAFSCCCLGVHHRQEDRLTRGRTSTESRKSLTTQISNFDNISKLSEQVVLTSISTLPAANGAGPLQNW
T2 sequence (O43613 whole entry): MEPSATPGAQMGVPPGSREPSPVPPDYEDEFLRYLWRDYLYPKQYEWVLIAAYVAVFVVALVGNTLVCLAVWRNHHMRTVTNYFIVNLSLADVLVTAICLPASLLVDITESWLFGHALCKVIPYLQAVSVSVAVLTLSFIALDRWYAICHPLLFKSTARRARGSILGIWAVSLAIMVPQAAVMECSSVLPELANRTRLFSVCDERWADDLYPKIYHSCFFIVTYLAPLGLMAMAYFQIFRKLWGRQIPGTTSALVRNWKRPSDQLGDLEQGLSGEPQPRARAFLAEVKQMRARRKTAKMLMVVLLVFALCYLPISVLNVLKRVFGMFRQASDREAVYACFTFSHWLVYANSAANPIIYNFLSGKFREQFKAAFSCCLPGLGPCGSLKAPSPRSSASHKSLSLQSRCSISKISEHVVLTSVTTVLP

SMILES	alcohol self-administration [1]	nicotine self-administration [2]	opiate withdrawal symptoms [3]	panic-like behaviours and cardiovascular responses [4]	Kb [5]	pKi average OX2 [6]	Kb [7]	pKi average OX1 [8]
Cc1nc2ccc(NC(=O)Nc3ccnc4cccnc34)cc2o1 [SB-334867]	decreases	decreases	significantly reduce	–	–	–	–	–
O=C(c1cccc(F)c1-c1ncccn1)N1[C@@H]2CC[C@H]1[C@H](Nc1cnc(C(F)(F)F)cn1)C2 [JNJ-54717793]	–	–	–	attenuated	–	–	–	–
[2H]C([2H])(Oc1ccc(F)cc1)[C@H]1CCC[C@@H]1NC(=O)c1nc(NC(C)=O)ccc1-n1nccn1 [Example 8, 6-acetamido-N-[(1S,2S)-2-[dideuterio-(4-fluorophenoxy)methyl]cyclopentyl]-3-(triazol-2-yl)pyridine-2-carboxamide]	–	–	–	–	> 0.794 µM	5.8	0.0158 µM	8.4
CC(=O)Nc1ccc(-c2ncccn2)c(C(=O)N[C@H]2CCC[C@@H]2COc2ccc(Cl)cc2)n1 [Example 15, 6-acetamido-N-[(1S,2S)-2-[(4-chlorophenoxy)methyl]cyclopentyl]-3-pyrimidin-2-yl-pyridine-2-carboxamide]	–	–	–	–	> 0.631 µM	6.2	0.00398 µM	8.7
COCC(=O)Nc1ccc(-c2ncccn2)c(C(=O)N[C@H]2CCC[C@@H]2COc2ccc(F)cc2)n1 [Example 16, N-[(1S,2S)-2-[(4-fluorophenoxy)methyl]cyclopentyl]-6-[(2-methoxyacetyl)amino]-3-pyrimidin-2-yl-pyridine-2-carboxamide]	–	–	–	–	> 1 µM	<5.1	0.2 µM	7.7
CC(=O)Nc1cc(C(=O)N[C@H]2CCC[C@@H]2COc2ccc(F)cc2)c(-n2nccn2)cn1 [Example 23, 2-acetamido-N-[(1S,2S)-2-[(4-fluorophenoxy)methyl]cyclopentyl]-5-(triazol-2-yl)pyridine-4-carboxamide]	–	–	–	–	> 0.0631 µM	6.5	0.00316 µM	8.9
CC(=O)Nc1ccc(-c2ncccn2)c(C(=O)N(C)[C@H]2CCC[C@@H]2COc2ccc(F)cc2)n1 [Example 18, 6-acetamido-N-[(1S,2S)-2-[(4-fluorophenoxy)methyl]cyclopentyl]-N-methyl-3-pyrimidin-2-yl-pyridine-2-carboxamide]	–	–	–	–	> 0.501 µM	6.8	0.000631 µM	8.6
